In patent US20210114029A1, “DEVICES, SYSTEMS, AND METHODS FOR HIGH THROUGHPUT SINGLE CELL ANALYSIS” (Duke University, priority 2017, published 2021):

Columns and labels:
K562 cells = experiment: Growth of K562 single cell colonies in microfluidic trap array in the presence of Imatinib; assay type: cell-based; details: K562 cells grown with 0.1 μM, 0.3 μM, 0.5 μM Imatinib or control; FIG. 20
Excerpt: (§1) Cells were introduced to the array and transferred to the interior chambers with a gentle trap and transfer technique that is similar to previously reported methods (Dura, et al. (2014), “Deformability-based microfluidic cell pairing and fusion”, Lab. Chip 14:2783). Specifically, we first captured cells at the entrance of the traps, and next transferred the cells into the chambers with a brief pressure burst, causing the cells to squeeze through the narrow constrictions and move into the interior chambers. The widths of the constrictions were adjusted in the range of 3-6 microns, depending on the cell type the device was designed to capture. […] Flow control was achieved by adjusting negative pressure at the outlet, which allowed cells to be pipetted directly in the inlet reservoir with minimal losses from dead volume. Additionally, this approach allowed us to wash the cells from the inlet reservoir once the array was fully populated. […]
(§2) Cells were imaged twice per day and immediately returned to the incubator after each imaging cycle, requiring around 5-10 minutes for each chip. After 7 days, the imaging dataset was analyzed by custom computer vision software written in Python using a pre-trained Mask_RCNN image segmentation model. […]

MOLM 13 cells = experiment: Growth of MOLM 13 cells in microfluidic chambers in the presence of Quizartinib; assay type: cell-based; details: drug vs control medium, images FIG. 22A/22B
Excerpt: as §1, §2

SMILES | growth rate distribution of colonies (K562 cells) | outgrowth of clones in the presence of the drug (MOLM 13 cells)
Cc1ccc(NC(=O)c2ccc(CN3CCN(C)CC3)cc2)cc1Nc1nccc(-c2cccnc2)n1 [Imatinib] | decreased growth rate with increasing drug concentration | 
CC(C)(C)c1cc(NC(=O)Nc2ccc(-c3cn4c(n3)sc3cc(OCCN5CCOCC5)ccc34)cc2)no1 [Quizartinib] |  | A single clone is observed to grow out in the presence of the drug
